Activity calls are given as the source filed them. No cut-off for these calls is given here.
Experiments:
[1] = system: HT-29; assay: Induction of apoptosis in human HT-29 cells assessed as late apoptotic cells at 8 uM incubated for 24 hrs by FITC/Annexin V based FACS analysis (reference value: 1.5%); format: functional
[2] = system: HT-29; assay: Inhibition of colony formation in human HT-29 cells at 5 uM incubated for 10 days by crystal violet staining based assay; format: functional, cell-based; conditions: time 10.0 day
[3] = system: DNA; assay: Induction of pBR322 plasmid DNA (unknown origin) conformational change at 2.5:1 compound:DNA ratio incubated for 4 hrs by EtBr staining based agarose gel mobility shift assay; format: nucleic-acid assay
[4] = system: HT-29; assay: Induction of apoptosis in human HT-29 cells assessed as increase in cleaved caspase-3 expression at 3 to 6 uM incubated for 24 hrs by immunoblotting analysis; format: functional, cell-based; conditions: dose 3-6 µM
[5] = system: HCT-116; assay: Induction of DNA damage in human HCT-116 cells assessed as increase in gammaH2AX expression at 1 to 2 uM incubated for 24 hrs by immunoblotting analysis; format: functional, cell-based; conditions: dose 1-2 µM
[6] = system: HCT-116; assay: Induction of apoptosis in human HCT-116 cells assessed as viable cells at 4 uM incubated for 24 hrs by FITC/Annexin V based FACS analysis (reference value: 87.1%); format: functional; conditions: read-out: Activity
[7] = system: HCT-116; assay: Induction of necroptosis in RIP3-silenced/5-AD sensitized human HCT-116 cells assessed as increase in p-MLKL level at 3 uM preincubated with 5-AD for 3 days followed by compound addition for 24 hrs; format: functional, cell-based
[8] = system: HCT-116; assay: Induction of apoptosis in human HCT-116 cells assessed as necrotic cells at 2 uM incubated for 24 hrs by FITC/Annexin V based FACS analysis (reference value: 4.9%); format: functional
[9] = system: HeLa; assay: Induction of mitochondrial depolarization in human HeLa cells incubated for 24 hrs by JC-1 staining based confocal microscopy imaging method; format: functional, cell-based
[10] = system: HeLa; assay: Induction of apoptosis in human HeLa cells assessed as early apoptotic cells at 4 uM incubated for 24 hrs by FITC/Annexin V based FACS analysis (reference value: 2.7%); format: functional
[11] = system: HeLa; assay: Induction of cell death in human HeLa cells assessed as increase in ZBP1 expression at 6 uM incubated for 24 hrs by immunoblotting analysis; format: functional, cell-based

CN(C)CCCNc1nc2cc([N+](=O)[O-])ccc2nc1NCc1ccc(-c2ccccc2)cc1
Activity [1]: 17.5% | inhibition [2]: Active | Activity [3]: 100% | Activity [4]: Active | Activity [5]: Active | viability at 4 µM [6]: 45.2% | Activity [7]: Active | Activity [8]: 26.1% | Activity [9]: Active | Activity [10]: 14.2% | Activity [11]: Active

— ChEMBL document CHEMBL5512652, “Mono-quinoxaline-induced DNA structural alteration leads to ZBP1/RIP3/MLKL-driven necroptosis in cancer cells” (Eur J Med Chem, 2024)
